Laboratory results: patent US20100234469A1, “New Crystals Of A Benzoylbenzeneacetamide Derivative” (Medichem, S.A., priority 2009, published 2010)
≈ marks a conversion by molar mass, not a printed value. Read-outs that look alike come from different tables or passages of the source. Values belong to the compound of their own block, whether it stands above or below them.

What was measured:
[1] = Particle size distribution (Malvern Mastersizer S); type: physicochemical; details: for DMVS (μm): Table 4, surface area mean diameter (D[3,2]); for D[4,3]: mean diameter by volume
Procedure: The particle size for nepafenac was measured using a Malvern Mastersizer S particle size analyzer with an MS1-Small Volume Sample Dispersion Unit stirred cell. A 300RF mm lens and a beam length of 2.4 mm were used. Samples for analysis were prepared by wetting a weighed amount of nepafenac (approximately 50 mg) with 0.5 mL of a 1% solution of Igepal CA-630 in deionized water, and dispersing in 20 mL of deionized water. After sonication for 1 minute, the suspension was delivered drop-wise to the previously background and corrected measuring cell filled with dispersant (deionized water) until the obscuration reached the desired level. Volume distributions were obtained for three times. After completing the measurements, the sample cell was emptied and cleaned, refilled with suspending medium, and the sampling procedure repeated again. For characterization, the values of D10, D50 and D90 (by volume), D[4,3] (mean diameter by volume) and D[3,2] (mean diameter by surface area to volume, or Sauter diameter) were specifically listed, each one being the mean of the six values available for each characterization parameter.
The notation Dx means that X % of the particles have a diameter less than a specified diameter D. Thus a D90 [or D(v, 0.9)] of 100 μm means that 90% of the particles have a diameter less than 100 μm.

[2] = BET specific surface area; type: physicochemical; details: for Sw (m^2/g): Table 4, powder specific surface area; for Specific Surface Area (BET): N2 adsorption at 77 K
Procedure: The BET (Brunauer, Emmett and Teller) specific surface area for nepafenac was measured using a Micromeritics™ GEMINI V equipment (GEMINI CONFIRM V2.00 Software™). The sample for analysis was degassed at 30° C. for 10 minutes and at 140° C. for one hour. The determination of the adsorption of N2 at 77 K was measured for relative pressures in the range of 0.02 to 0.2 for a weighed amount of nepafenac (i.e., approximately 0.5 g).

[3] = Flowability by Hausner ratio (tapped / bulk density); type: physicochemical; details: micronized crystals
Procedure: Flowability affects the ease with which the material is handled during processing into a pharmaceutical product. Namely, when flowability is very poor, problems occur with handling and processing during formulating. The flowability of nepafenac can be measured using the Hausner ratio, which is a value calculated by dividing the tapped bulk density of nepafenac by the freely settled bulk density of nepafenac. The freely settled bulk density is calculated by pouring a known weight of material into a measuring cylinder and recording the volume. The tapped density is calculated by tapping the cylinder against a surface for a specified number of times and recording again the new volume. See Henry H. Hausner, “Friction Conditions in a Mass of Metal Powders”, Int. J. Powder Metall. Vol. 3, 1967, pp 7-13.
A low Hausner ratio indicates a high flowability. […]
Measurement of Hausner ratio is well-known in the art and is described, for example, by Mersmann; Crystallization Technology Handbook (A. Mersmann, ed., 2nd Ed., Marcel Dekker). In the present invention, the bulk and tapped densities for each sample of nepafenac were determined using a TP-TD1 tapped densitometer from Pharma Test. The Hausner ratio of the nepafenac sample was calculated by dividing the tapped bulk density by the bulk density.

[4] = Density by glass pycnometer in n-heptane; type: physicochemical; details: for ρ: Table 4, particle density
Procedure: Density of nepafenac samples was determined at 25° C. using a 50 mL glass pycnometer. […] The density of the nepafenac sample (ρs) can be determined from the known density of n-heptane (ρH: 0.685 g/cm^3), the weight of the pycnometer filled only with n-heptane (WH^0, the weight of the filled pycnometer containing both nepafenac and n-heptane (WS+H), and the weight of nepafenac (WS):
Density of nepafenac samples was determined for three times, being the listed result the mean of the three values available for each sample.

[5] = Sphericity factor calculation; type: physicochemical; details: calculated from Sw, ρ and DMVS
From the text: One of the most common ways of expressing the degree of irregularity of the particles is by means of the sphericity factor (ψw), which is generally defined as the ratio between the surface area of a sphere having the same volume as the particle and the surface area of the particle:
Because sphericity factors are not calculated for each particle but for an assembly of particles, they have to be based on an average size. Thus, the sphericity factor will then be given by the following equation: […]
where Sw is the powder specific surface area, ρ is the particle density and DMVS is the surface area mean diameter, also referred to as the mean volume-surface, the Sauter diameter or D[3,2]. The Sauter diameter is defined as the diameter of a sphere that has the same volume/surface area ratio as the particle of interest.
A sphericity factor of 1.0 describes a perfect sphere with the greatest ease of flow (Encapsulated and powdered foods, CRC Press 2005).

[6] = Solubility of nepafenac at reflux temperature in crystallization solvent; type: physicochemical
Procedure: General procedure: Nepafenac was dissolved under magnetical stirring and at reflux in a solvent (See Table 1). The solution was cooled to room temperature under stirring. The solid was filtered and dried. The different conditions and the obtained results are described in Table 1 below.

[7] = Optical microscopy: crystal shape and aspect ratio; type: physicochemical; details: for Crystal shape: optical microscopy, 40× magnification; for Aspect ratio: crystal length / width, average of at least 100 crystals
From the text: The “aspect ratio” of a crystal is defined as the ratio of its longest dimension to its shortest dimension. As used herein, “aspect ratio” is the quotient of the division of a crystal's length by its width. The aspect ratio of crystals can be obtained by taking micrographs of a batch of crystal (See General Experimental Conditions. Optical Microscopy).
The micrographs were taken at 40× magnification.
The aspect ratio of crystals was obtained from micrographs of a batch of crystal. Micrographs were processed with ImageJ 1.42q software. Length and width of at least 100 representative crystals (i.e., having an area greater than 500 μm^2 for a 40× magnification image) was measured, and the aspect ratio of each crystal was calculated by dividing the crystal length by the crystal width. The average aspect ratio for each batch was determined by dividing the sum of crystal aspect ratios by the number of crystals measured.

[8] = Chargeability observed when handling crystals with a metallic material; type: physicochemical
From the text: Drug substances in solid form can suffer electrostatic charging by contact or friction electrification (tribocharging) caused by interactions among particles or between particles and the surfaces that contain them. These interactions can affect formulation, manufacture, powder flow, and packing behaviour. In addition, it has been reported that electrostatic charges are also responsible for problems in blend uniformity. The net positive or negative tendency of dry powders to become charged electrostatically is called chargeability.
There is no standard instrument for the measurement of the chargeability of dry powders (see AAPS PharmSciTech 2006, 7, Article 103). Triboelectric charge is commonly reported on a charge-to-mass basis since net charge and mass can be easily measured. However, triboelectric and induction charging are more closely related to the surface area of a particle rather to volume or mass. Then, it is well known that the surface area of the particles plays a key role in dry powder chargeability, and that therefore the particles having a higher specific surface area can hold a greater charge.

[9] = Solubility statements (water, n-heptane); type: physicochemical; details: n-heptane at the working temperature (25° C.)
[10] = stated as known; cited from earlier work
[11] = Table 3, micronized samples, unit inferred

DMVS (μm) [1]: 2.5 μm
D10 ([1]; by volume): 1.2 μm
D50 ([1]; by volume): 5.8 μm
D90 ([1]; by volume): 18.9 μm
Sw (m^2/g) [2]: 1.7686 ± 0.0242 m^2/g
Hausner ratio [3]: 1.43
ρ [4]: 1.33 g/mL
Ψw (sphericity factor) [5]: 1.0
SMILES: NC(=O)Cc1cccc(C(=O)c2ccccc2)c1N [Example 8, 2-amino-3-benzoylbenzeneacetamide]

solubility ([6]; 2-propanol:water 70:30, organic solvent or mixture, thermodynamic from solid, in 2-propanol:water 70:30 at reflux, read-out: Solubility): 79.6 mg/mL (≈ 313 mM)
Crystal shape [7]: Plate
SMILES: NC(=O)Cc1cccc(C(=O)c2ccccc2)c1N [Example 3, 2-amino-3-benzoylbenzeneacetamide]

Crystal shape [7]: plate-like crystals
D10 ([1]; by volume): 30.5 μm
D50 ([1]; by volume): 144.9 μm
D90 ([1]; by volume): 401.8 μm
D[4,3] [1]: 185.0 μm
Specific Surface Area (BET) [2]: 0.7046±0.0272 m^2/g
SMILES: NC(=O)Cc1cccc(C(=O)c2ccccc2)c1N [Example 6, 2-amino-3-benzoylbenzeneacetamide]

D10 ([1]; by volume): 1.3 μm
D50 ([1]; by volume): 6.1 μm
D90 ([1]; by volume): 17.1 μm
SMILES: NC(=O)Cc1cccc(C(=O)c2ccccc2)c1N [Example 7, 2-amino-3-benzoylbenzeneacetamide, reference compound]

solubility ([6]; 2-propanol:water 60:40, organic solvent or mixture, thermodynamic from solid, in 2-propanol:water 60:40 at reflux, read-out: Solubility): 32.6 mg/mL (≈ 128 mM)
Crystal shape [7]: Plate
SMILES: NC(=O)Cc1cccc(C(=O)c2ccccc2)c1N [Example 4, 2-amino-3-benzoylbenzeneacetamide]

solubility ([6]; 2-propanol, organic solvent or mixture, thermodynamic from solid, in 2-propanol at reflux temperature, read-out: Solubility): 21 mg/mL (≈ 82.6 mM)
solubility ([6]; mixtures of 2-propanol with up to 40% of water, organic solvent or mixture, thermodynamic from solid, in mixtures of 2-propanol with up to 40% of water at reflux temperature, read-out: Solubility): 30 to 80 mg/mL (≈ 118 to 315 mM)
solubility ([6]; water, 100 °C, water, thermodynamic from solid, in water at reflux temperature, read-out: Solubility): 0.7 mg/mL (≈ 2.75 mM)
True density ([4]; experimental): 1.33 g/mL
Solubility in n-heptane [9]: practically insoluble
SMILES: NC(=O)Cc1cccc(C(=O)c2ccccc2)c1N [nepafenac, 2-amino-3-benzoylbenzeneacetamide, reference compound]
Solubility in water [10]: practically insoluble

Crystal shape [7]: plate-like shape
Chargeability [8]: Reduced chargeability
SMILES: NC(=O)Cc1cccc(C(=O)c2ccccc2)c1N [Example 5, 2-amino-3-benzoylbenzeneacetamide]

solubility ([6]; 2-propanol:water 80:20, organic solvent or mixture, thermodynamic from solid, in 2-propanol:water 80:20 at reflux, read-out: Solubility): 78.6 mg/mL (≈ 309 mM)
Crystal shape [7]: Plate
SMILES: NC(=O)Cc1cccc(C(=O)c2ccccc2)c1N [Example 2, 2-amino-3-benzoylbenzeneacetamide]

DMVS (μm) [1]: 2.7 μm
D10 ([1]; by volume): 2.2 μm
D50 ([1]; by volume): 12.1 μm
D90 ([1]; by volume): 27.5 μm
D[3,2] ([1]; mean diameter by surface area to volume (Sauter diameter)): 2.7 μm
Sw (m^2/g) [2]: 2.0341 ± 0.0074 m^2/g
ρ [4]: 1.33 g/mL
Ψw (sphericity factor) [5]: 0.82
SMILES: NC(=O)Cc1cccc(C(=O)c2ccccc2)c1N [Example 10, 2-amino-3-benzoylbenzeneacetamide]

The next lines start with the compound.

SMILES: NC(=O)Cc1cccc(C(=O)c2ccccc2)c1N [Comparative Example 3, 2-amino-3-benzoylbenzeneacetamide, reference compound]
Crystal shape [7]: Needle-like crystals
D10 ([1]; by volume): 23.6 μm
D50 ([1]; by volume): 85.8 μm
D90 ([1]; by volume): 491.1 μm
D[4,3] ([1]; unit not given, in µm (unit assumed)): 178.4
Specific Surface Area (BET) [2]: 0.8256±0.0270 m^2/g

SMILES: NC(=O)Cc1cccc(C(=O)c2ccccc2)c1N [Comparative Example 2, 2-amino-3-benzoylbenzeneacetamide, reference compound]
Aspect ratio [7]: 5.67
Crystal shape [7]: Needle-like crystals

SMILES: NC(=O)Cc1cccc(C(=O)c2ccccc2)c1N [Batch 2, 2-amino-3-benzoylbenzeneacetamide]
D10 [1, 11]: 4.8 µm
D50 [1, 11]: 19.8 µm
D90 [1, 11]: 66.5 µm

SMILES: NC(=O)Cc1cccc(C(=O)c2ccccc2)c1N [Comparative Example 1, 2-amino-3-benzoylbenzeneacetamide, reference compound]
solubility ([6]; in 2-propanol at reflux temperature): 21.2 mg/mL (≈ 83.4 mM)
Crystal shape [7]: needle-like shape
Chargeability [8]: high chargeability

SMILES: NC(=O)Cc1cccc(C(=O)c2ccccc2)c1N [Batch 3, 2-amino-3-benzoylbenzeneacetamide]
D10 [1, 11]: 4.4 µm
D50 [1, 11]: 14.9 µm
D90 [1, 11]: 45.3 µm

SMILES: NC(=O)Cc1cccc(C(=O)c2ccccc2)c1N [Example 1, 2-amino-3-benzoylbenzeneacetamide]
solubility ([6]; 2-propanol:water 90:10, organic solvent or mixture, thermodynamic from solid, in 2-propanol:water 90:10 at reflux, read-out: Solubility): 55.2 mg/mL (≈ 217 mM)
Aspect ratio [7]: 3.04
Crystal shape [7]: Plate

SMILES: NC(=O)Cc1cccc(C(=O)c2ccccc2)c1N [Batch 1, 2-amino-3-benzoylbenzeneacetamide]
D10 [1, 11]: 6.1 µm
D50 [1, 11]: 21.4 µm
D90 [1, 11]: 64.3 µm
